Holding throughout (assay): Eurofins kinase panel
Holding throughout (type): biochemical
What all share (settings): read-out: Inhibition rate (%)

For one assay, the target named is T1, PDGFRα(D842V)(h) (Homo sapiens, UniProt P16234, D842V).
T1 construct: purchased Eurofins (KinaseProfiler)

Another assay deals with T2, c-RAF(h) (Homo sapiens, UniProt P04049).
T2 construct: purchased Eurofins (KinaseProfiler)

For another assay, the target named is T3, MEK2(h) (Homo sapiens, UniProt P36507).
T3 construct: purchased Eurofins (KinaseProfiler)

Assay [1] concerns the target T4, PI3 Kinase (p110α/p65α)(h) (Homo sapiens, UniProt P42336).
T4 construct: purchased Eurofins (KinaseProfiler)

Assay [2] addresses T5, PI3 Kinase (p110β/p85α)(h) (Homo sapiens, UniProt P42338).
T5 construct: purchased Eurofins (KinaseProfiler)

Another assay has as its target T6, BMPR2(h) (Homo sapiens, UniProt Q13873).
T6 construct: purchased Eurofins (KinaseProfiler)
T6 sequence (Q13873 27-1038): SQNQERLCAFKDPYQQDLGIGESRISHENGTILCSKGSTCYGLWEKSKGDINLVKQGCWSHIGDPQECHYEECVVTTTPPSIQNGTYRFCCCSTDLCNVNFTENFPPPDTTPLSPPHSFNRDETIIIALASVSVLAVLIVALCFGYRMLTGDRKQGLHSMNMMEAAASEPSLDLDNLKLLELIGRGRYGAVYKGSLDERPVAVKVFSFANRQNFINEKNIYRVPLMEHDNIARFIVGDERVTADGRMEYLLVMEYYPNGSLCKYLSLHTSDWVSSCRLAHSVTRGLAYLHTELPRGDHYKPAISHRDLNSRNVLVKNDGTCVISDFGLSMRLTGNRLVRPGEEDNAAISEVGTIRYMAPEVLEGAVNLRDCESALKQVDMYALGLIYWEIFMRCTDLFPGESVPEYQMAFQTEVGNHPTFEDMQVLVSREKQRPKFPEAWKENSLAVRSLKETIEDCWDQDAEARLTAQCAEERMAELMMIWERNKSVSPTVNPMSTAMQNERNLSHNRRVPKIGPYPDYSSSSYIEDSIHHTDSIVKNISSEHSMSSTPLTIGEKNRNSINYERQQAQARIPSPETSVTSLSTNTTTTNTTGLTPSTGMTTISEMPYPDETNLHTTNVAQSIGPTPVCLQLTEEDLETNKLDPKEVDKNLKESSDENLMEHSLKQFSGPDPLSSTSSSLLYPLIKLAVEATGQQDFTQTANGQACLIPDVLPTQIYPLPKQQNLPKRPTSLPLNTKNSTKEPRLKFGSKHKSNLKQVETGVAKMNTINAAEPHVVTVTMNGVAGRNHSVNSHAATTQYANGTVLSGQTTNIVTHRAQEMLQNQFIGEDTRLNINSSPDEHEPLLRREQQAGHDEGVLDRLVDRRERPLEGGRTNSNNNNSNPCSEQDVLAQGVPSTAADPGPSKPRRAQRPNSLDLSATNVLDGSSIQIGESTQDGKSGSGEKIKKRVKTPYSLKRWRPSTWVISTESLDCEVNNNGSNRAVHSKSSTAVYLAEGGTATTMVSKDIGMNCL

A further assay concerns the target T7, MLK1(h) (Homo sapiens, UniProt P80192).
T7 construct: purchased Eurofins (KinaseProfiler)

Another assay deals with T8, IKKβ(h) (Homo sapiens, UniProt O14920).
T8 construct: purchased Eurofins (KinaseProfiler)
T8 sequence (O14920 1-756): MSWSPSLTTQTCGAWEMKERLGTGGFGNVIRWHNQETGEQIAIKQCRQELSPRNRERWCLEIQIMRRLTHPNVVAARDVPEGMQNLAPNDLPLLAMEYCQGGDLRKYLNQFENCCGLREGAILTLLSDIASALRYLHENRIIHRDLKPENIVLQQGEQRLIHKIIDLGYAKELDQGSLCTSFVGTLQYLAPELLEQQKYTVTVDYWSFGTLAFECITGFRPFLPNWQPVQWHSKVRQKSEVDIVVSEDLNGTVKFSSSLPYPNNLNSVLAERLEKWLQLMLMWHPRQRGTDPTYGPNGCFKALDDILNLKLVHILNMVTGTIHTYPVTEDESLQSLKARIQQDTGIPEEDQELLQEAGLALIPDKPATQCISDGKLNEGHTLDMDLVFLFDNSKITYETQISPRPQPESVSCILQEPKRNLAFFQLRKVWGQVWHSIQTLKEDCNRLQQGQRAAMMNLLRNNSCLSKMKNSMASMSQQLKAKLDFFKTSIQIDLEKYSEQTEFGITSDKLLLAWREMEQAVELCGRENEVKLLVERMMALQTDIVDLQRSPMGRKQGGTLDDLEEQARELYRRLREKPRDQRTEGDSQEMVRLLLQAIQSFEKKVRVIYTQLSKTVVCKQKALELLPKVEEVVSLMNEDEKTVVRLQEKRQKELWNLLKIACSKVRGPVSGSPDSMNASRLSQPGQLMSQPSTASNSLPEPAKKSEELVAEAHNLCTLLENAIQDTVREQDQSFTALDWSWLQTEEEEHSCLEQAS

Here are results for one molecule from paper PMC6704710, “Preclinical evaluation of 3D185, a novel potent inhibitor of FGFR1/2/3 and CSF-1R, in FGFR-dependent and macrophage-dominant cancer models” (Journal of Experimental & Clinical Cancer Research : CR, 2019).

One may read the inhibition as the drop in the measured response relative to a control, in per cent.

T1 sequence (P16234 24-1089 D842V): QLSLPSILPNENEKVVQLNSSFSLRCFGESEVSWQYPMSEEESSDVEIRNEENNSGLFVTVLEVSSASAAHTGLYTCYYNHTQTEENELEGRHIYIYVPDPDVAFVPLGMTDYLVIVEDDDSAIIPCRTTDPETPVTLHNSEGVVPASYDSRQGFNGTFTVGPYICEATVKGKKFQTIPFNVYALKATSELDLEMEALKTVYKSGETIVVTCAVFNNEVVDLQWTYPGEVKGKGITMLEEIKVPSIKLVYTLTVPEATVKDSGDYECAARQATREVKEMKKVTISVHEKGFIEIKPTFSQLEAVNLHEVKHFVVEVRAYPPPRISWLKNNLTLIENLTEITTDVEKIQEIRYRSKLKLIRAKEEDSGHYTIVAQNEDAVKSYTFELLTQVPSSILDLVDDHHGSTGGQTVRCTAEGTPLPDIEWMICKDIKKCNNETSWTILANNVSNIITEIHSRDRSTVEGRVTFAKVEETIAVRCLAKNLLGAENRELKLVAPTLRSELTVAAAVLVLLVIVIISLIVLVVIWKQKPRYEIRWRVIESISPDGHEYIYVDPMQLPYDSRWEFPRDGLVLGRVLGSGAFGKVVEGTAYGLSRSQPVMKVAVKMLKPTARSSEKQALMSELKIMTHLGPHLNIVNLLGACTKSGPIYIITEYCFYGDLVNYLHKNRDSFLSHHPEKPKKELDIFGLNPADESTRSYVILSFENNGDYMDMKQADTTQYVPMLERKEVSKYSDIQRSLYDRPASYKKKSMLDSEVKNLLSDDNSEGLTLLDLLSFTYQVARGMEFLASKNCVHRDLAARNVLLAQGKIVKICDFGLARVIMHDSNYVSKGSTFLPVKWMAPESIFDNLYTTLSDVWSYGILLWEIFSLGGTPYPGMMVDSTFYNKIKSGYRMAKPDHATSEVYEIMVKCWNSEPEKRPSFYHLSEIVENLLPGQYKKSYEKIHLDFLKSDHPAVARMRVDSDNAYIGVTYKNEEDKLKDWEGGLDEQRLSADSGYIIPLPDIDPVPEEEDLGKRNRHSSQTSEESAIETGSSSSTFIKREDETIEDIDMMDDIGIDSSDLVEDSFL
T2 sequence (P04049 whole entry): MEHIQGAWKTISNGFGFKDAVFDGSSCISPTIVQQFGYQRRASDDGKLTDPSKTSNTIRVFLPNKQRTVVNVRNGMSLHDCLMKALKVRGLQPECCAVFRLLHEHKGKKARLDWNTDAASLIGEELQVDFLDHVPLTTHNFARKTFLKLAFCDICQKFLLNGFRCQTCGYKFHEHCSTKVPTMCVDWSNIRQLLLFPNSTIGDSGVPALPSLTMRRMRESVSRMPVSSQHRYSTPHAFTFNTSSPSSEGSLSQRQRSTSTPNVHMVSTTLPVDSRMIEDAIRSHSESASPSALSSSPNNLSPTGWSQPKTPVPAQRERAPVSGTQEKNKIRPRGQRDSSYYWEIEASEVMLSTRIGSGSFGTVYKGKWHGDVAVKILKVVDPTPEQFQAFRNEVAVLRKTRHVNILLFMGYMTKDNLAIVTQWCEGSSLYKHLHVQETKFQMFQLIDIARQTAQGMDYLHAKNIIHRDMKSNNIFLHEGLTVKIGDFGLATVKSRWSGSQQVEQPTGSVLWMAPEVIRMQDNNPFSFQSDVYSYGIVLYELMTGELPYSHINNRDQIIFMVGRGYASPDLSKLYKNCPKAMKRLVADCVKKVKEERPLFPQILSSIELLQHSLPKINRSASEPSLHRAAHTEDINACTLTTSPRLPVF
T3 sequence (P36507 whole entry): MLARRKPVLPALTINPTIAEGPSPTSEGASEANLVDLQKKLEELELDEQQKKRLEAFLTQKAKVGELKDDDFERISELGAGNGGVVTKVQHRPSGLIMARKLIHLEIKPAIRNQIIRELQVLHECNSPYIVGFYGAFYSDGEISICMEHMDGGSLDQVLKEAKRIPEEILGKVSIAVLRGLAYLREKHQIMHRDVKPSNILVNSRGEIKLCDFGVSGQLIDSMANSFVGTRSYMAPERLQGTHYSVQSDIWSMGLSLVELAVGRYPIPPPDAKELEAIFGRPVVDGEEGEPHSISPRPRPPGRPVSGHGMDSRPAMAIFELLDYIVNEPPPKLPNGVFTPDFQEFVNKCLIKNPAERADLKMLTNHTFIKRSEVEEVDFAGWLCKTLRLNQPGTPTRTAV
T5 sequence (P42338 whole entry): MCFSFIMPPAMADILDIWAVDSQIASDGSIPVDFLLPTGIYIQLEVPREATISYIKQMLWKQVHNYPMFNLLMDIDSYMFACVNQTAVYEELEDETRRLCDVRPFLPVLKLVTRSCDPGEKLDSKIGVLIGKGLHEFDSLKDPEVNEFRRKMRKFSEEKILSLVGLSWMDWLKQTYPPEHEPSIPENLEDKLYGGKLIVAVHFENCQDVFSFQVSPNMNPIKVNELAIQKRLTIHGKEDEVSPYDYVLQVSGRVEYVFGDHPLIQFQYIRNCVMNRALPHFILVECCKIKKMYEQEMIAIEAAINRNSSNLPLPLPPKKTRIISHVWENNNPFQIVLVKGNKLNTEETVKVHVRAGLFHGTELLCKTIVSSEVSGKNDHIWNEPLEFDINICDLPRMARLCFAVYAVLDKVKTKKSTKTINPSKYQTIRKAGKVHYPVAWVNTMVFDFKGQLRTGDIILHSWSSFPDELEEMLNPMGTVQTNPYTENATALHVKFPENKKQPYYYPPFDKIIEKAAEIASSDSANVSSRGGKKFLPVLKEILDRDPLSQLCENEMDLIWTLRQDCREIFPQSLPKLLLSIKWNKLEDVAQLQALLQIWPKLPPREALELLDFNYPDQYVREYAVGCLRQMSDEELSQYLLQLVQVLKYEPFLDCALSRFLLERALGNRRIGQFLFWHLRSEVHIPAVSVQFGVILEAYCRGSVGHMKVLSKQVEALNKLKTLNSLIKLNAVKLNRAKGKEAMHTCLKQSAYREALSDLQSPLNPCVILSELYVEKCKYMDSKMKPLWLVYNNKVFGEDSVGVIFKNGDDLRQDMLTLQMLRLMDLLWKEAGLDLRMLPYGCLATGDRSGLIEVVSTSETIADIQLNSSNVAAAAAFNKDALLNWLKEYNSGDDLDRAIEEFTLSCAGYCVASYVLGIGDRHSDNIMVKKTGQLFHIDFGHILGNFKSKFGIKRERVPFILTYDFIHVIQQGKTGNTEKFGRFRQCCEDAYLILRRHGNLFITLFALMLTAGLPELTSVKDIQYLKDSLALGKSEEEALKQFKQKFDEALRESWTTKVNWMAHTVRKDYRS
T5 sequence (P27986 whole entry partner): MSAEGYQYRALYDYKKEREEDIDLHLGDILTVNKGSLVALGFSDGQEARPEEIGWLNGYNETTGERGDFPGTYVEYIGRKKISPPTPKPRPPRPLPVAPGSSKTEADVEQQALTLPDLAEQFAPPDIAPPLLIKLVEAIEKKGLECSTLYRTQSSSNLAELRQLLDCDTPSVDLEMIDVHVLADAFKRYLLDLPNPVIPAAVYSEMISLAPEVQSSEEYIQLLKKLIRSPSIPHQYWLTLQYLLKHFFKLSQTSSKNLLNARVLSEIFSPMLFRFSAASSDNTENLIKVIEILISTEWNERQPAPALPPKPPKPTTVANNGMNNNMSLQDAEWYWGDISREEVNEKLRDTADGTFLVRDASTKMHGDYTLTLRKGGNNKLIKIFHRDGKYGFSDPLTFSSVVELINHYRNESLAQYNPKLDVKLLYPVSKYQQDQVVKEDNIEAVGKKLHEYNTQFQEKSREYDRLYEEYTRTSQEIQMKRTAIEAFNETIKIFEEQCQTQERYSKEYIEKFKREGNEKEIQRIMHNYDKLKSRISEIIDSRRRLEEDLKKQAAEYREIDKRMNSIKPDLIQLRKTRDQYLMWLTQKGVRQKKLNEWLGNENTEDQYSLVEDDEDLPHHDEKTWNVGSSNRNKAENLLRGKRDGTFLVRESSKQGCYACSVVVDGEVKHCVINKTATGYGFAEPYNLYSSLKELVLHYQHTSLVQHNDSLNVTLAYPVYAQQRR
T7 sequence (P80192 whole entry): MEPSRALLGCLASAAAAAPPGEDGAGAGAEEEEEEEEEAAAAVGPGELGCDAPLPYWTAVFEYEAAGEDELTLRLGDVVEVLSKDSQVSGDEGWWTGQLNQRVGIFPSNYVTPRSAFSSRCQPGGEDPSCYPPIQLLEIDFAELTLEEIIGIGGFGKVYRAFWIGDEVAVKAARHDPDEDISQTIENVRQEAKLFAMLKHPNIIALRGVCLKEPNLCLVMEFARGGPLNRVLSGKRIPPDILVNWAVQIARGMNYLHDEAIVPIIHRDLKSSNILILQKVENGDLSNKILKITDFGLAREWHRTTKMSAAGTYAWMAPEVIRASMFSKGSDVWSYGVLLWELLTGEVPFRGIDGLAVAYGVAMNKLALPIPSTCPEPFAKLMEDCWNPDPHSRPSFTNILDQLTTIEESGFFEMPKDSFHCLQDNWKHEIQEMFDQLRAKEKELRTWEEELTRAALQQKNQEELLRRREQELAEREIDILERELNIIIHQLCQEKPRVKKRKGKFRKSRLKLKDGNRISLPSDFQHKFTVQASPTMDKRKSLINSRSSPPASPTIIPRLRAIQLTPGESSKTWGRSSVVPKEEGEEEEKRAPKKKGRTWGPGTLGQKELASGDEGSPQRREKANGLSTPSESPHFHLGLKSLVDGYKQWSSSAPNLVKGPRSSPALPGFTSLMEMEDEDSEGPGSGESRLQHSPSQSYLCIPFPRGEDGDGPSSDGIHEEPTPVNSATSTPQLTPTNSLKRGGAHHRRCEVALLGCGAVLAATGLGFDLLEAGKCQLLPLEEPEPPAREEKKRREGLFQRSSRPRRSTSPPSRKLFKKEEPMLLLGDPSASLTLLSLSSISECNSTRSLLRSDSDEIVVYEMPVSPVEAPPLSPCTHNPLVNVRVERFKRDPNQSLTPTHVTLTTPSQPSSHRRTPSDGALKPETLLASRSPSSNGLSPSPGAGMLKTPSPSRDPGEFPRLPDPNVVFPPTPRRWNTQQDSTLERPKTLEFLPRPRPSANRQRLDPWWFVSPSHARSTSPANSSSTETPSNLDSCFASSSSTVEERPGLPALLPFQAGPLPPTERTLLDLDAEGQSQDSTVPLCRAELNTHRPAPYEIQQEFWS

Consider `COc1cc(OC)c(Cl)c(-c2ccc3c(NC(=O)c4ccc(N5CCNC(C)(C)C5)cc4)n[nH]c3n2)c1Cl` [3D185], for which the inhibition at 0.01 µM on PDGFRα(D842V)(h) (10 nM) is -2%; on c-RAF(h) (10 nM) it was 13%; on MEK2(h) (10 nM) it was -18%; in assay [1] (10 nM) it was 3%; in assay [2] (10 nM) it was 0%; on BMPR2(h) (10 nM), 5%. Moreover, the inhibition at 0.01 µM is -9% at MLK1(h) (10 nM) and 0% on IKKβ(h) (10 nM). Besides, the inhibition at 0.1 µM on PDGFRα(D842V)(h) (100 nM) is 5%; at c-RAF(h) (100 nM), 14%; on MEK2(h) (100 nM), -19%; in assay [1] (100 nM) it was 2%; in assay [2] (100 nM), 1%; on BMPR2(h) (100 nM), -2%. Moreover, the inhibition at 0.1 µM at MLK1(h) (100 nM) is -1%; on IKKβ(h) (100 nM), -5%. For the same molecule, the inhibition at 1 µM at PDGFRα(D842V)(h) (1000 nM) is 9%; at c-RAF(h) (1000 nM), 5%; on MEK2(h) (1000 nM) it was 8%; in assay [1] (1000 nM), 0%; in assay [2] (1000 nM), 4%; on BMPR2(h) (1000 nM), 4%. In addition, the inhibition at 1 µM at MLK1(h) (1000 nM) worked out at 26%; on IKKβ(h) (1000 nM), 15%.
